Reference: PubChem BioAssay AID686998 (Broad Institute, 2013)
“And” between values parts separate entries of the source, which are not always exact repeats. Identical values can stand only once. Results filed as inconclusive are left out. The source made the active and inactive calls.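 Rule for the calls: active = falling signal with fitted half-maximal potency no higher than twice the top valid tested dose; inconclusive = poor fit quality, or flat fit spanning -70% to -30%; inactive = potency over limit, rising signal, or flat fit inside 30%.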

System: Cryptococcus neoformans growth, Alamar Blue, 24 h
Experiment: fungal growth arrest, C. neoformans – Alamar Blue, cherry-picks, dose response (AID 686998)

| SMILES | IC50 |
| --- | --- |
| O=C(c1cccc(F)c1)N1C[C@H]2[C@@H](c3ccccc31)[C@@H](CO)N2Cc1cocn1 | > 70 µM (inactive) |
| Cc1ccc2nc(C)c3c(c2c1)OC(C(C)(Cl)Br)C3 (configuration not stated) | 19 µM |
| COC(=O)C1=C(C)N(Cc2ccccc2)C(=O)N[C@H]1c1cccc(F)c1 | 53.8 µM |
| Cc1ccc(S(=O)(=O)N2CC[C@@H]3[C@H](CO)Nc4ccc(-c5ccccc5F)cc4[C@@H]32)cc1 | 0.997 µM |
| Cc1ccc(C(=O)Nc2ccc3ncccc3c2)cc1 | 24 µM |
| CCC(C)c1ccc(NC(=S)N2CCN(c3ccccn3)CC2)cc1 (configuration not stated) | 17.5 µM |
| CNC(=O)CN(c1ccc(OC)cc1)S(=O)(=O)c1ccc(F)cc1 | > 70 µM (inactive) |
| C[C@@H]1CN([C@@H](C)CO)S(=O)(=O)c2ccc(C3=CCCC3)cc2O[C@@H]1CN(C)Cc1ccccc1F | 31.3 µM |
| COC(=O)C1=C(C)N(Cc2ccccc2)C(=S)NC1c1ccc(Br)cc1 (configuration not stated) | 10.2 µM |
| Cc1noc(C)c1NC(=O)N(C)C[C@H]1OCCCC[C@@H](C)Oc2ccc(NC(=O)NC(C)C)cc2C(=O)N([C@H](C)CO)C[C@H]1C | > 70 µM (inactive) |
| COC(=O)C1=C(C)N(Cc2ccc(Br)cc2)C(=S)NC1c1ccccc1 (configuration not stated) | 13.1 µM |
| COc1cccc(C(=O)NC(=S)Nc2ccccc2N2CCOCC2)c1 | 21.2 µM |
| COc1cc(CO)cc(I)c1O[C@H]1C=C(C(=O)NCCO)C[C@@H](N(CC2CCCCC2)C(=O)c2cc3ccccc3oc2=O)[C@@H]1O | 0.479 µM |
| COc1ccc(CN(C)C[C@@H]2OCCCC[C@@H](C)Oc3ccc(NC(=O)c4ccccc4)cc3C(=O)N([C@H](C)CO)C[C@@H]2C)cc1 | > 70 µM (inactive) |
| Cc1ccc(/C=C2\SC(=S)N(NS(=O)(=O)c3ccc(C)cc3)C2=O)cc1 | 12.7 µM |
| C[C@H](CO)N1C[C@H](C)[C@H](CN(C)C(=O)NC2CCCCC2)OCCCC[C@H](C)Oc2ccc(NS(=O)(=O)c3cn(C)cn3)cc2C1=O | 47.7 µM |
| CCCCN1C(=S)NC[C@@H]1Cc1ccccc1 | 20.9 µM |
| S=C(NCc1ccccc1)NCC1COc2ccccc2O1 (configuration not stated) | 21 µM |
| CC(=O)N1[C@H](CO)[C@H](c2ccc(-c3ccccc3)cc2)[C@@H]1CNC(=O)C1CC1 | 4.92 µM |
| S=C(NCCc1cccc(Cl)c1)NC1CCCCC1 | 6.69 µM |
| Cc1ccc(S(=O)(=O)N(C)C[C@H]2Oc3c(cccc3N(C)C)C(=O)N([C@@H](C)CO)C[C@H]2C)cc1 | > 70 µM (inactive) |
| COC(=O)C1=C(C)N(CC(C)C)C(=S)NC1c1cccc(F)c1 (configuration not stated) | 23.8 µM and 46.8 µM |
| C/C=C/c1ccc([C@@H]2[C@@H](C#N)N(S(=O)(=O)c3cccc(F)c3)[C@@H]2CO)cc1 | 33.6 µM |

| SMILES | IC50 |
| --- | --- |
| CCCNC(=O)[C@H]1[C@H](CO)[C@H]2Cn3c(cccc3=O)[C@@H]1N2C(=O)Nc1cc(F)ccc1F | 68.5 µM |
| Cc1noc(C)c1NC(=O)N(C)C[C@H]1Oc2ccc(NC(=O)C3CC3)cc2CC(=O)N([C@@H](C)CO)C[C@H]1C | > 70 µM (inactive) |
| Cc1ccccc1-n1ncc2c(SCC(=O)NCc3cccs3)ncnc21 | 23.4 µM |
| CCOC(=O)c1c(-c2ccc(-c3ccccc3)cc2)csc1NC(=O)CNCCN(C)C | 15 µM |
| COC(=O)C1=C(C)N(Cc2ccc(Cl)cc2)C(=S)NC1c1ccccc1 (configuration not stated) | 10.8 µM |
| CC(=O)N[C@H]1CC[C@@H](CCNC(=O)C2CCC2)O[C@H]1CO | 50.2 µM |
| C[C@@H]1CN([C@H](C)CO)C(=O)CCCn2nncc2CO[C@H]1CN(C)Cc1cccc(C(F)(F)F)c1 | 4.17 µM |
| O=C(CN(c1ccccc1)S(=O)(=O)c1ccccc1)Nc1ccc(F)cc1 | 40.8 µM |
| C[C@@H]1CN([C@H](C)CO)C(=O)c2ccccc2-c2ccccc2CO[C@H]1CN(C)S(=O)(=O)c1cccc(C#N)c1 | 66.7 µM |
| O=C(NC(=S)Nc1cc(Cl)ccc1N1CCOCC1)c1ccccc1[N+](=O)[O-] | 7.86 µM |
| Fc1cccc(CCN2C(=S)NC[C@@H]2Cc2ccccc2)c1 | 7.13 µM |
| COCC(=O)Nc1ccc2c(c1)C(=O)N(C)C[C@H](OC)[C@@H](C)CN(C(=O)c1ccccc1)[C@@H](C)CO2 | > 70 µM (inactive) |
| C[C@@H]1CN([C@H](C)CO)C(=O)c2cc(NS(=O)(=O)c3cn(C)cn3)ccc2O[C@@H](C)CCCCO[C@H]1CN(C)C | 62.9 µM |
| Cc1cc(Cl)ccc1NC(=S)NCc1ccc(F)cc1 | 15.5 µM |
| CCc1ccc(C(C)NC(=S)NCc2ccc(F)cc2)cc1 (configuration not stated) | 7.31 µM |
| O=C(CSc1ncnc2c1cnn2-c1cccc(Cl)c1)NCC1CCCO1 (configuration not stated) | 39.1 µM |
| Cc1ccccc1-n1ncc2c(SCC(=O)N3c4ccccc4CC3C)ncnc21 (configuration not stated) | 0.28 µM |
| CCN1C(=S)N[C@@H](c2cccc(F)c2)C(C(=O)OC)=C1C | > 70 µM (inactive) |
| C[C@H](NC(=O)C[C@H]1CC[C@@H](NC(=O)Cc2ccccn2)[C@@H](CO)O1)c1ccccc1 | 47.2 µM |
| Cc1ccc(NC(=S)NCc2ccc(Cl)cc2)c(OC(F)F)c1 | 10.2 µM |
| CN1c2ccc(-c3ccc(F)cc3)cc2[C@@H]2[C@@H](CCN2C(=O)C2CCOCC2)[C@@H]1CO | 0.756 µM |
| C[C@H](NC(=O)C[C@@H]1C=C[C@H](NC(=O)CN2CCOCC2)[C@H](CO)O1)c1ccccc1 | 44.8 µM |
| COC(=O)C1=C(C)N(Cc2ccc(Cl)cc2)C(=S)NC1c1cccc(F)c1 (configuration not stated) | 20.4 µM |

| SMILES | IC50 |
| --- | --- |
| CC(=O)OC1(C)CC(C)C(=O)C(C(O)CC2CC(=O)NC(=O)C2)C1 (configuration not stated) | < 0.26 µM |
| C[C@H]1CN([C@@H](C)CO)C(=O)Cc2cc(NC(=O)C3CC3)ccc2O[C@@H]1CN(C)C(=O)Nc1cccc2ccccc12 | 53.6 µM |
| C[C@@H]1CCCCO[C@@H](CN(C)C(=O)NC2CCCCC2)[C@H](C)CN([C@@H](C)CO)C(=O)c2cc(NS(=O)(=O)c3cn(C)cn3)ccc2O1 | 44.3 µM |
| CCCC(=O)N1CCC1(C)C(=O)Nc1cc(C)ccc1C (configuration not stated) | > 70 µM (inactive) |
| NC(=S)N/N=C/c1ccc(-c2cc(Cl)ccc2Cl)o1 | 4.48 µM |
| COc1ccc(N2CCN(C(=O)CSc3ncnc4c3cnn4-c3ccccc3C)CC2)cc1 | 53.8 µM |
| COc1cc2c(C(=O)N(C)c3cc(Cl)ccc3OC)cn(C)c(=O)c2cc1OC | 0.383 µM |
| COc1ccccc1NC(=O)c1cn(C)c(=O)c2cc(OC)c(OC)cc12 | 50.1 µM |
| O=C(c1cccs1)N1CCN(c2nc3ccccc3s2)CC1 | > 70 µM (inactive) |
| CN1C[C@@H]2C(c3ccc(C(F)(F)F)cc3)C3(c4ccccc4)CC2(C3)[C@H]1c1ccccc1 (some centres not stated) | 11.2 µM |
| O=C(CCN1CCCCC1)NCC[C@@H]1CC[C@H](NC(=O)c2ccc(F)cc2)[C@@H](CO)O1 | > 70 µM (inactive) |
| Cc1ccc(S(=O)(=O)N2CC[C@@H]3[C@H]2c2cc(-c4ccccc4F)ccc2N[C@@H]3CO)cc1 | 6.14 µM |
| COC(=O)C1=C(C)N(Cc2ccccc2)C(=S)NC1c1cccc(OC)c1 (configuration not stated) | 32.5 µM |
| Cc1ccccc1NC(=O)C(NC1CCCCC1)C(C)C (configuration not stated) | 1.46 µM |
| O=C(Nc1ccc(N2CCOCC2)cc1N1CCOCC1)c1cccc([N+](=O)[O-])c1 | 67 µM |
| CCC(=O)Nc1ccc2c(c1)OC[C@H](C)N(C(=O)c1ccc(F)cc1)C[C@@H](C)[C@@H](OC)CN(C)C2=O | 48.2 µM |
| CCCC[C@@H]1CNC(=S)N1CCc1cccc(F)c1 | 1.29 µM |
| COC(=O)C1=C(C)N(Cc2ccccc2)C(=S)N[C@H]1c1ccc(Br)cc1 | 4.51 µM |
| CC(C)NC(=O)Nc1ccc2c(c1)CC(=O)N([C@H](C)CO)C[C@H](C)[C@@H](CN(C)C(=O)Nc1ccc3c(c1)OCO3)O2 | > 70 µM (inactive) |
| CO[C@H]1CN(C)C(=O)c2ccc(NC(=O)NC(C)C)cc2OC[C@@H](C)NC[C@H]1C | 1.08 µM |
| C/C=C/c1ccc([C@@H]2[C@H]3CN(C(=O)Nc4ccc(OC)cc4)CCCCN3[C@H]2CO)cc1 | > 70 µM (inactive) |
| Cc1ccc(NC(=S)Nc2ccc(Cl)c(Cl)c2)c(OC(F)F)c1 | 20.6 µM |
| CC(C)CC#Cc1cnc2c(c1)C(=O)N([C@@H](C)CO)C[C@H](C)[C@H](CN(C)C(=O)c1ccc3c(c1)OCO3)O2 | 5.12 µM |

| SMILES | IC50 |
| --- | --- |
| CC(C)CC#Cc1ccc2c(c1)O[C@H](CN(C)C(=O)C1CCC1)[C@@H](C)CN([C@@H](C)CO)S2(=O)=O | 43.5 µM |
| CNC[C@H]1Oc2ncc(C#CCC(C)C)cc2C(=O)N([C@H](C)CO)C[C@H]1C | > 70 µM (inactive) |
| C[C@H](CO)N1C[C@H](C)[C@H](CN(C)Cc2ccc(Cl)c(Cl)c2)Oc2c(NC(=O)Nc3ccccc3)cccc2C1=O | 10.8 µM |
| COC(=O)C1=C(C)N(CC(C)C)C(=S)NC1c1ccc(Cl)cc1 (configuration not stated) | 9 µM and 18 µM |
| O=C(C1CCOCC1)N1C[C@H]2[C@@H](c3ccccc31)[C@@H](CO)N2Cc1ccccc1Cl | 1.88 µM |
| O=C(C[C@H]1CC[C@H]2[C@@H](COC[C@H](O)CN2Cc2cc(F)cc(F)c2)O1)Nc1nccs1 | > 70 µM (inactive) |
| COCCN1C(=O)CCC1(C)C(=O)Nc1c(C)cccc1C (configuration not stated) | 30.2 µM |
| O=C1CCC(C(=O)Nc2ccc([N+](=O)[O-])cc2)N1 (configuration not stated) | 10.1 µM |
| C[C@H](CO)N1C[C@H](C)[C@@H](CN(C)S(=O)(=O)c2cn(C)cn2)Oc2c(NC(=O)Nc3ccccc3)cccc2C1=O | > 70 µM (inactive) |
| COC(=O)C1=C(C)N(Cc2ccc(Br)cc2)C(=S)NC1c1ccc(OC)cc1 (configuration not stated) | 26 µM and 32.8 µM |
| O=C(COc1ccccc1)NCc1ccccc1 | 2.84 µM |
| COc1ccc(C(=O)NC(=S)Nc2ccccc2N2CCOCC2)cc1[N+](=O)[O-] | 26.1 µM |
| COC(=O)C1=C(C)N(Cc2ccc(F)cc2)C(=S)NC1c1cccc(Br)c1 (configuration not stated) | 6.82 µM |
| Fc1ccccc1NC(=S)NCCc1cccc(Cl)c1 | 16 µM |
| COC(=O)C1=C(C)N(Cc2ccc(Cl)cc2)C(=S)NC1c1ccc(OC)cc1 (configuration not stated) | 22.6 µM |
| CC=Cc1ccc2n(c1=O)C[C@@H]1[C@@H](CO)[C@H](C(=O)NCc3ccc4c(c3)OCO4)[C@H]2N1C(=O)C1CC1 (mixture of isomers) | 23.3 µM |
| COC(=O)C1=C(C)N(Cc2ccc(F)cc2)C(=S)NC1c1ccc(Cl)cc1 (configuration not stated) | 11.4 µM |
| Cc1ccccc1S(=O)(=O)N[C@@H]1CC[C@H](CCNS(=O)(=O)c2cccc(F)c2)O[C@H]1CO | > 70 µM (inactive) |
| C[C@@H]1CN([C@H](C)CO)C(=O)c2cccc(NC(=O)c3ccncc3)c2O[C@H]1CN(C)C(=O)Nc1ccc(C(F)(F)F)cc1 | 67.4 µM |
| COC(=O)C1=C(C)N(Cc2ccc(Cl)cc2)C(=S)NC1c1cccc(Cl)c1 (configuration not stated) | 15.1 µM |
| CC(C)c1ccc(OCC(=O)NC(C)c2ccccc2)cc1 (configuration not stated) | 49.5 µM |
| COC(=O)C1=C(C)N(Cc2ccc(Cl)cc2)C(=S)NC1c1ccc(F)cc1 (configuration not stated) | 14.8 µM and 20.9 µM |
| C[C@@H]1CN([C@H](C)CO)C(=O)Cc2cc(NC(=O)NC3CCCCC3)ccc2O[C@@H]1CN(C)Cc1ccccc1 | > 70 µM (inactive) |
